# Laboratory results reported in PubChem BioAssay (NCI).
#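 1) Cells in 96-well plates. 2) Compound, 48 h, 5 concentrations. 3) Linear interpolation between surrounding doses. 4) Unreached endpoint = highest concentration. GI50 is the concentration that inhibits growth by half. TGI is the concentration that stops growth completely.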 Where a SMILES comes first, the peptide text is derived from it. The star is where a group is joined. Boc = CC(C)(C)OC(=O)*; OBn = c1ccc(CO*)cc1
# Tested on: CCRF-CEM leukemia
# Assay: inhibition of tumour cell growth, NCI panel, 48 h
Compound,TGI,GI50
COc1ccc2c(c1)/C(=C\c1c(C)nc3n1CCS3)C(=O)N2,> 100 µM,–
CN(C)C=C1C(=O)c2c(Br)sc(Br)c2C1=O,> 100 µM,–
O=c1[nH]n(Cc2ccccc2Cl)c2ccc([N+](=O)[O-])cc12,> 100 µM,–
COc1cc2c[n+](C)c3c4cc5c(cc4ccc3c2cc1OC)OCO5,19.5 µM,–
CCOC(=O)CCC(NC(=O)c1ccc(CNc2nc3ccccc3nc2C(=O)OCC)cc1)C(=O)OCC (stereo unspecified),> 100 µM,–
COC(=O)Nc1nc2ccc(S(=O)(=O)NC(CC(C)C)C(=O)OC)cc2[nH]1 (stereo unspecified),> 100 µM,–
Cc1cc([C@H](C#N)c2nc3ccccc3[nH]2)nc(Cl)n1,> 100 µM,–
OC(CCN1CCCCC1)(c1ccccc1)c1ccccc1,> 100 µM,–
COC1CC(C)C(OC)C2=CC(=O)C=C(NC(=O)/C(C)=C/C=C\C(C)C(OC(N)=O)/C(C)=C\C(C)C1OC)C2=O (stereo unspecified),1.05 µM,0.0706 µM
O=C1c2ccccc2C(O)(C(=O)O)C1(O)CC=C(Cl)Cl (stereo unspecified),> 125 µM,–
CN(C)C=Nc1cccc2nsnc12,> 100 µM,–
CC(=O)O[C@@H]1CC[C@@]2(C)C(CC[C@H]3[C@@H]4CC[C@H]([C@H](C)CCc5nc6ccc(C)cc6[nH]5)[C@@]4(C)CC[C@@H]32)C1 (stereo partly specified),8.47 µM,–
COc1cccc(OC/C(N=Cc2cccnc2)=N/NC(=O)c2ccncc2)c1,> 100 µM,–
Cc1csc2nc3c(cnn3C)c(=S)n12,> 100 µM,–
C/C1=C/C(C)CC(C)OC(=O)C(C)NC(=O)C(Cc2ccc(O)c(I)c2)N(C)C(=O)CNC(=O)C(C)C1 (stereo unspecified),< 0.01 µM,–
COC(=O)C(C)NP(=O)(N1CC1)N1CC1 (stereo unspecified),> 100 µM,–
Cc1ccc(-n2cnc3c(N)nc(N)nc32)cc1,> 100 µM,–
Ic1ncnc2c1ncn2C1CCCO1 (stereo unspecified),> 100 µM,–
COc1ccc(Nc2nnc(CCCCCCCCc3nnc(Nc4ccc(OC)cc4)o3)o2)cc1,> 100 µM,–
O=c1c(C=Nc2ccccc2Cl)c(O)n(-c2ccccc2)c(=O)n1-c1ccccc1,> 100 µM,–
CCOC(=O)NNC(=O)C1CSC(c2ccccc2)N1C(C)=O (stereo unspecified),> 100 µM,–
O=[n+]1c2ccccc2n([O-])c2ccccc21,> 100 µM,–
CC(C)(C)O/C=C1/C(=O)OC2C[C@@H](O[Si](C)(C)C(C)(C)C)CC12 (stereo partly specified),88.4 µM,–
CCCCCCCCCCCCCCCCCCNc1ccn(C2OC(COP(=O)(O)OC3CC(n4cc(F)c(=O)[nH]c4=O)OC3COP(=O)(O)OCC3OC(n4ccc(N)nc4=O)C(O)C3O)C(O)C2O)c(=O)n1 (stereo unspecified),3.37 µM,–
CC(C)C(NC(=O)C(Cc1ccccc1)NC(=O)OC(C)(C)C)C(=O)NCC(=O)OCc1ccccc1 (stereo not drawn) (Boc-Phe-Val-Gly-OBn; configuration not given here),43 µM,–

# Tested on: HCT-116 colon
# Assay: inhibition of tumour cell growth, NCI panel, 48 h
row,Compound,TGI
1,Cc1oc2c(c1C)S(=O)(=O)C(C#N)C(c1ccccc1)N2 (stereo unspecified),> 100 µM
2,CC(=O)Oc1cc2c(n(C)c1=O)-c1ccccc1C2,> 100 µM
3,Nc1nc(N)c2cc(Sc3ccc4nc(N)nc(N)c4c3)ccc2n1,> 100 µM
4,N#CC(C#N)N=Cc1ccncc1,> 100 µM
5,COc1ccc2c(c1)/C(=C\c1c(C)nc3n1CCS3)C(=O)N2,> 100 µM
6,CN(C)C=C1C(=O)c2c(Br)sc(Br)c2C1=O,53.9 µM
7,O=c1[nH]n(Cc2ccccc2Cl)c2ccc([N+](=O)[O-])cc12,> 100 µM
8,COc1cc2c[n+](C)c3c4cc5c(cc4ccc3c2cc1OC)OCO5,18.9 µM
9,CCOC(=O)CCC(NC(=O)c1ccc(CNc2nc3ccccc3nc2C(=O)OCC)cc1)C(=O)OCC (stereo unspecified),> 100 µM
10,COC(=O)Nc1nc2ccc(S(=O)(=O)NC(CC(C)C)C(=O)OC)cc2[nH]1 (stereo unspecified),19.1 µM
11,Cc1cc([C@H](C#N)c2nc3ccccc3[nH]2)nc(Cl)n1,> 100 µM
12,OC(CCN1CCCCC1)(c1ccccc1)c1ccccc1,> 100 µM
13,COC1CC(C)C(OC)C2=CC(=O)C=C(NC(=O)/C(C)=C/C=C\C(C)C(OC(N)=O)/C(C)=C\C(C)C1OC)C2=O (stereo unspecified),1.51 µM
14,O=C1c2ccccc2C(O)(C(=O)O)C1(O)CC=C(Cl)Cl (stereo unspecified),> 125 µM
15,CN(C)C=Nc1cccc2nsnc12,> 100 µM
16,CC(=O)O[C@@H]1CC[C@@]2(C)C(CC[C@H]3[C@@H]4CC[C@H]([C@H](C)CCc5nc6ccc(C)cc6[nH]5)[C@@]4(C)CC[C@@H]32)C1 (stereo partly specified),> 100 µM
17,COc1cccc(OC/C(N=Cc2cccnc2)=N/NC(=O)c2ccncc2)c1,> 100 µM
18,Cc1csc2nc3c(cnn3C)c(=S)n12,> 100 µM
19,C/C1=C/C(C)CC(C)OC(=O)C(C)NC(=O)C(Cc2ccc(O)c(I)c2)N(C)C(=O)CNC(=O)C(C)C1 (stereo unspecified),> 100 µM
20,Cc1ccc(-n2cnc3c(N)nc(N)nc32)cc1,> 100 µM
21,Ic1ncnc2c1ncn2C1CCCO1 (stereo unspecified),> 100 µM
22,COc1ccc(Nc2nnc(CCCCCCCCc3nnc(Nc4ccc(OC)cc4)o3)o2)cc1,> 100 µM
23,O=c1c(C=Nc2ccccc2Cl)c(O)n(-c2ccccc2)c(=O)n1-c1ccccc1,> 100 µM
24,CCOC(=O)NNC(=O)C1CSC(c2ccccc2)N1C(C)=O (stereo unspecified),> 100 µM
25,O=[n+]1c2ccccc2n([O-])c2ccccc21,> 100 µM
26,CC(C)(C)O/C=C1/C(=O)OC2C[C@@H](O[Si](C)(C)C(C)(C)C)CC12 (stereo partly specified),> 100 µM
27,CCCCCCCCCCCCCCCCCCNc1ccn(C2OC(COP(=O)(O)OC3CC(n4cc(F)c(=O)[nH]c4=O)OC3COP(=O)(O)OCC3OC(n4ccc(N)nc4=O)C(O)C3O)C(O)C2O)c(=O)n1 (stereo unspecified),> 60.7 µM
28,CC(C)C(NC(=O)C(Cc1ccccc1)NC(=O)OC(C)(C)C)C(=O)NCC(=O)OCc1ccccc1 (stereo not drawn) (Boc-Phe-Val-Gly-OBn; configuration not given here),40 µM

# Tested on: HCT-15 colon
# Assay: inhibition of tumour cell growth, NCI panel, 48 h
row,Compound,TGI
1,Cc1oc2c(c1C)S(=O)(=O)C(C#N)C(c1ccccc1)N2 (stereo unspecified),> 100 µM
2,CC(=O)Oc1cc2c(n(C)c1=O)-c1ccccc1C2,> 100 µM
